Where “and” joins values, the source holds several entries; their conditions need not be identical. Equal values may be shown once.
Test system: LG0703-F498-PDC complex spheroid growth
Assay: Anticancer human tumor LG0703-F498-PDC patient-derived lung adenocarcinoma cell line growth inhibition [AhR]
Details: for viability, T/C: stronger effect = lower value; active = viability on the fitted dose curve at most 10% of control; inactive = the rest
Excerpt: Multicellular complex tumor spheroid response to aryl hydrocarbon receptor antagonists in combination with a variety of drugs and investigational agents in selected tumor cell lines
The current study was undertaken to assess response to aryl hydrocarbon receptor antagonists in combination with standard-of-care drugs and investigational agents in solid tumor complex spheroid models. Complex spheroids include a stromal component modeled by human endothelial cells (HUVEC) and fibroblasts modeled by human mesenchymal stem cells (MSCs). The concentration ranges selected for each drug and investigational agent were based upon clinically achievable concentrations if the clinical Cmax of the agent was known.
Compounds. The drugs and investigational agents: BAY 2416964 (NSC825713), GNF351 (NSC835774), CH-223191 (NSC835775), CPI-455 (NSC825282), aza-TdCyd (NSC777586), decitabine (NSC127716), belinostat (NSC758774), entinostat (NSC756642), pevonedistat (NSC761192), tazemetostat (NSC777109), talazoparib (NSC765396), olaparib (NSC753686), selinexor (NSC780203), nedisertib (M3814, NSC802822), bortezomib (NSC756655), venetoclax (NSC766270), doxorubicin (NSC123127), elimusertib (BAY189344, NSC800525), ceralasertib (AZD6738, NSC777638), TAK-243 (NSC785004), alisertib (NSC759677), etoposide (NSC141540), topotecan (NSC609699), eribulin (NSC707389), gemcitabine (NSC613327), carboplatin (NSC241240), cisplatin (NSC119875), and SN-38 (NSC673596) were obtained from the National Cancer Institute (NCI) Developmental Therapeutics Program Chemical Repository (32). The FDA-approved anticancer drug set is available from the Developmental Therapeutics Program at https://dtp.cancer.gov/organization/dscb/obtaining/available plates.htm. […] The stock solutions were prepared in dimethyl sulfoxide (DMSO, Sigma-Aldrich, St. Louis, MO, cat. D2650), except for the platinum compounds which were prepared in saline (Quality Biological, Gaithersburg, MD, cat. 114-055-101), at 800-fold the tested concentration and stored at -70 degrees C prior to their use. All drugs and investigational agents were tested over a range starting from a high concentration at or near the clinical Cmax and decreasing in half-log increments. If the clinical Cmax for an agent had not been determined, the highest concentration tested was 10 microM (Table 1).
Cell Culture. All cells were maintained in an incubator at 37 degrees C and 5% CO2 with 95% humidity. The PDC lines were cultured according to standard operating procedures established by the NCI PDMR (https://pdmr.cancer.gov). Briefly, all PDCs were thawed and cultured in Matrigel-coated flasks prepared with a working solution of 1X Ham's F-12 nutrient mix, without supplementation (Invitrogen, Waltham, MA, cat. 11765054), 100 U/mL penicillin-streptomycin (Invitrogen, cat. 15140122), and 2.5% Matrigel (Corning Inc., Corning, NY, cat. 354248) for the first three passages. All PDCs were cultured in complete DMEM/F-12 media containing advanced DMEM/F-12 (Invitrogen, cat. 12634028), 4.9% defined fetal bovine serum, heat inactivated (HyClone Laboratories Inc., Logan, UT, cat. SH30070.03HI), 389 ng/mL hydrocortisone (Sigma-Aldrich, cat. H4001), 9.7 ng/mL human EGF recombinant protein (Invitrogen, cat. PHG0313), 23.4 microg/mL adenine (Sigma-Aldrich, cat. A2786), 97.3 U/mL penicillin-streptomycin (Invitrogen, cat. 15140122), 1.9 mM L-glutamine (Invitrogen, cat. 25030081), and 9.7 microM Y-27632 dihydrochloride (Tocris Bioscience, Bristol, United Kingdom, cat. 1254). The PDCs were cultured in complete DMEM/F12 media without 10 microM Y-27632 dihydrochloride for at least two passages prior to the screen. The established cell lines NCI-H1341 and […] were cultured in DMEM/F-12, HEPES (Invitrogen, cat. 11330032), 5% defined fetal bovine serum (HyClone Laboratories Inc., cat. SH30070.03), ITS premix universal culture supplement [insulin (5 microg/mL), transferrin (5 microg/mL), and selenious acid (5 ng/mL)] […]

[1] = curve of first compound, second compound 0.1 µM
[2] = curve of first compound, second compound 0.316 µM
[3] = curve of first compound, second compound 1 µM
[4] = curve of first compound, second compound 3.16 µM
[5] = curve of first compound, second compound 10 µM
[6] = second compound 0.1 µM, first compound 0.0316 µM
[7] = second compound 0.1 µM, first compound 0.1 µM
[8] = second compound 0.1 µM, first compound 0.316 µM
[9] = second compound 0.1 µM, first compound 1 µM
[10] = second compound 0.1 µM, first compound 3.16 µM
[11] = second compound 0.1 µM, first compound 10 µM
[12] = second compound 0.316 µM, first compound 0.0316 µM
[13] = second compound 0.316 µM, first compound 0.1 µM
[14] = second compound 0.316 µM, first compound 0.316 µM
[15] = second compound 0.316 µM, first compound 1 µM
[16] = second compound 0.316 µM, first compound 3.16 µM
[17] = second compound 0.316 µM, first compound 10 µM
[18] = second compound 1 µM, first compound 0.0316 µM
[19] = second compound 1 µM, first compound 0.1 µM
[20] = second compound 1 µM, first compound 0.316 µM
[21] = second compound 1 µM, first compound 1 µM
[22] = second compound 1 µM, first compound 3.16 µM
[23] = second compound 1 µM, first compound 10 µM
[24] = second compound 3.16 µM, first compound 0.0316 µM
[25] = second compound 3.16 µM, first compound 0.1 µM
[26] = second compound 3.16 µM, first compound 0.316 µM
[27] = second compound 3.16 µM, first compound 1 µM
[28] = second compound 3.16 µM, first compound 3.16 µM
[29] = second compound 3.16 µM, first compound 10 µM
[30] = second compound 10 µM, first compound 0.0316 µM
[31] = second compound 10 µM, first compound 0.1 µM
[32] = second compound 10 µM, first compound 0.316 µM
[33] = second compound 10 µM, first compound 1 µM
[34] = second compound 10 µM, first compound 3.16 µM
[35] = second compound 10 µM, first compound 10 µM
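Also: luminescence taken as a proxy for viable cell amount.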
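For viability, T/C in this document: percent of DMSO vehicle control where 100% means growth equal to vehicle.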

CC(C)CC(NC(=O)C(Cc1ccccc1)NC(=O)c1cnccn1)B(O)O (configuration not stated)
0.00429 µM and 0.0055 µM and 0.00288 µM: IC50 (curve of compound)
inactive: viability, T/C (compound 0.000949 µM) 99.7% and 97.7% and 92.7% | viability, T/C (compound 0.003 µM) 69.5% and 94.8% and 48.4%
active: viability, T/C (compound 0.00949 µM) 6.8% and 9.74% and 2.07% | viability, T/C (compound 0.03 µM) 0.44% and 0.8% and 0.23% | viability, T/C (compound 0.0949 µM) 0.15% and 0.2% and 0.16% | viability, T/C (compound 0.3 µM) 0.19% and 0.35% and 0.18%

O=C(C=Cc1cccc(S(=O)(=O)Nc2ccccc2)c1)NO + Cc1cncc(-c2nc(NCCc3c[nH]c4ccccc34)c3ncn(C(C)C)c3n2)c1
active: viability, T/C [10] 10.1% | viability, T/C [11] 1.27% | viability, T/C [16] 7.58% | viability, T/C [17] 1.48% | viability, T/C [22] 6.31% | viability, T/C [23] 0.83% | viability, T/C [28] 6.63% | viability, T/C [29] 1.68% | viability, T/C [30] 1.93% | viability, T/C [31] 2.88% | viability, T/C [32] 4.14% | viability, T/C [33] 8.01% | viability, T/C [34] 9.58% | viability, T/C [35] 1.55%
0.523 µM: IC50 [3]
0.619 µM: IC50 [1]
< 0.0316 µM: IC50 [5]
0.423 µM: IC50 [4]
0.657 µM: IC50 [2]
inactive: viability, T/C [6] 118% | viability, T/C [7] 115% | viability, T/C [8] 75.8% | viability, T/C [9] 30.8% | viability, T/C [12] 111% | viability, T/C [13] 104% | viability, T/C [14] 81.1% | viability, T/C [15] 32% | viability, T/C [18] 106% | viability, T/C [19] 108% | viability, T/C [20] 69.3% | viability, T/C [21] 23.6% | viability, T/C [24] 59.9% | viability, T/C [25] 71.5% | viability, T/C [26] 57.8% | viability, T/C [27] 25%

CCc1c2c(nc3ccc(O)cc13)-c1cc3c(c(=O)n1C2)COC(=O)[C@]3(O)CC + Cc1ccccc1N=Nc1ccc(NC(=O)c2ccnn2C)c(C)c1
0.0494 µM: IC50 [1]
0.0239 µM: IC50 [4]
inactive: viability, T/C (second compound 0.1 µM, first compound 0.000949 µM) 79.1% | viability, T/C (second compound 0.1 µM, first compound 0.003 µM) 92.9% | viability, T/C (second compound 0.1 µM, first compound 0.00949 µM) 77.1% | viability, T/C (second compound 0.1 µM, first compound 0.03 µM) 56.8% | viability, T/C (second compound 0.1 µM, first compound 0.0949 µM) 41.5% | viability, T/C (second compound 0.1 µM, first compound 0.3 µM) 29.2% | viability, T/C (second compound 0.316 µM, first compound 0.000949 µM) 98.5% | viability, T/C (second compound 0.316 µM, first compound 0.003 µM) 94.6% | viability, T/C (second compound 0.316 µM, first compound 0.00949 µM) 75.8% | viability, T/C (second compound 0.316 µM, first compound 0.03 µM) 57.9% | viability, T/C (second compound 0.316 µM, first compound 0.0949 µM) 35.6% | viability, T/C (second compound 0.316 µM, first compound 0.3 µM) 24.9% | viability, T/C (second compound 1 µM, first compound 0.000949 µM) 86.5% | viability, T/C (second compound 1 µM, first compound 0.003 µM) 79.7% | viability, T/C (second compound 1 µM, first compound 0.00949 µM) 69.2% | viability, T/C (second compound 1 µM, first compound 0.03 µM) 48.4% | viability, T/C (second compound 1 µM, first compound 0.0949 µM) 36.3% | viability, T/C (second compound 1 µM, first compound 0.3 µM) 24.5% | viability, T/C (second compound 3.16 µM, first compound 0.000949 µM) 93.9% | viability, T/C (second compound 3.16 µM, first compound 0.003 µM) 83.3% | viability, T/C (second compound 3.16 µM, first compound 0.00949 µM) 64.3% | viability, T/C (second compound 3.16 µM, first compound 0.03 µM) 45% | viability, T/C (second compound 3.16 µM, first compound 0.0949 µM) 34.1% | viability, T/C (second compound 3.16 µM, first compound 0.3 µM) 21.7% | viability, T/C (second compound 10 µM, first compound 0.000949 µM) 65.8% | viability, T/C (second compound 10 µM, first compound 0.003 µM) 79% | viability, T/C (second compound 10 µM, first compound 0.00949 µM) 69.1% | viability, T/C (second compound 10 µM, first compound 0.03 µM) 51.7% | viability, T/C (second compound 10 µM, first compound 0.0949 µM) 35.8% | viability, T/C (second compound 10 µM, first compound 0.3 µM) 24.7%
0.0307 µM: IC50 [3]
0.0433 µM: IC50 [2]
0.0371 µM: IC50 [5]

COc1cccc2c1C(=O)c1c(O)c3c(c(O)c1C2=O)CC(O)(C(=O)CO)CC3OC1CC(N)C(O)C(C)O1 (configuration not stated) + CC(CO)NC(=O)c1cc(-c2ccc(Cl)cc2)nn(-c2cnn(C)c2)c1=O
0.547 µM: IC50 [3]
0.523 µM: IC50 [2]
active: viability, T/C [11] 1.2% | viability, T/C [17] 0.83% | viability, T/C [22] 10% | viability, T/C [23] 0.76% | viability, T/C [28] 4.74% | viability, T/C [29] 1.92% | viability, T/C [34] 0.65% | viability, T/C [35] 0.96%
0.459 µM: IC50 [4]
inactive: viability, T/C [6] 82.7% | viability, T/C [7] 80.6% | viability, T/C [8] 72.2% | viability, T/C [9] 43% | viability, T/C [10] 14.2% | viability, T/C [12] 84.3% | viability, T/C [13] 84.2% | viability, T/C [14] 58.4% | viability, T/C [15] 36% | viability, T/C [16] 12.7% | viability, T/C [18] 86.7% | viability, T/C [19] 89.6% | viability, T/C [20] 61.6% | viability, T/C [21] 34.7% | viability, T/C [24] 82.7% | viability, T/C [25] 84.8% | viability, T/C [26] 59.3% | viability, T/C [27] 27.4% | viability, T/C [30] 71.3% | viability, T/C [31] 73.8% | viability, T/C [32] 54.1% | viability, T/C [33] 13.9%
0.77 µM: IC50 [1]
0.36 µM: IC50 [5]

Reference: PubChem BioAssay AID1919013 (Molecular Pharmacology Branch, DTP, NCI, 2023)
